In one data set the test system is Apis mellifera. The conditions noted are these: acute, mortality.
In another data set the test system is Canidae. The conditions noted are these: chronic; duration: 1 years; oral; Dog Other; clinical chemistry.
The next data set has as its system Coturnix japonica. As to conditions: acute; oral; mortality.
Another data set deals with Daphnia magna. As to conditions: chronic/long-term; duration: 21 days.
In the next data set the test system is Aphidius rhopalosiphi. As to the kind of experiment: LR50; higher = less toxic. As to conditions: acute; duration: 48 hours; reproduction.
In a further data set the test system is Typhlodromus pyri. As to the kind of experiment: LR50; higher = less toxic. The conditions noted are these: acute; duration: 48 hours; reproduction.

The structures appear in SMILES notation. Values after ≈ are worked out from the molar mass of the structure shown.

From EPA's ToxValDB 9.5 (doi:10.2903/j.efsa.2006.86r) come the findings set out here.

In the case of `CCS(=O)CCSP(=O)(OC)OC` (stereo unspecified) [Oxydemeton-methyl], the NOEC in the data set with Anas platyrhynchos (reproductive) came out at 7.65 mg/kg-day; in the data set on Colinus virginianus (reproduction developmental), 0.97 mg/kg-day; in the data set on Daphnia magna it was 0.027 mg/L; in the data set on Oncorhynchus mykiss (chronic/long-term, duration: 98 days), 1.8 mg/L; in the data set with Tagia sp. (chronic/long-term, duration: 56 days, reproduction), 412 g/ha. Moreover, the NOEL in the data set with Anas platyrhynchos (short-term, oral, feed, mortality) came out at 119 mg/kg-day; with Colinus virginianus (short-term, oral, diet, mortality) it was 56.6 mg/kg-day. Moreover, the LD50 in the data set with Apis mellifera (duration: 48 hours, oral, unspecified) worked out at 0.2 µg/piece; in the data set on Apis mellifera (duration: 72 hours, dermal), 0.175 µg/piece; in the data set with Colinus virginianus (acute, oral, M, mortality), 34 mg/kg; in the data set with Coturnix japonica it was 29 mg/kg; in the data set with Rattus norvegicus (acute, oral, mortality) it was 48 mg/kg. Besides, the NOAEL (usually the highest tested level that showed no adverse finding) was determined as 0.1 mg/kg-day in the data set on Canidae; 0.03 mg/kg-day with Rattus norvegicus (chronic, duration: 2 years, clinical chemistry); 0.15 mg/kg-day in the data set with Rattus norvegicus (reproduction developmental, M, reproduction); 0.15 mg/kg-day in the data set with Rattus norvegicus (short-term, duration: 14 days, oral, clinical chemistry); 0.1 mg/kg-day in the data set with Rattus norvegicus (subchronic, duration: 90 days, oral, clinical chemistry). The LC50 in the data set with Oncorhynchus mykiss (acute, duration: 96 hours, mortality) was determined as 17 µg/mL (≈ 69 µM); in the data set with Tagia sp. (acute, duration: 14 days, mortality) it was 115 mg/kg. Moreover, the LR50 came to 42.5 g/ha in the data set with Aphidius rhopalosiphi and 143 g/ha in the data set on Typhlodromus pyri.
